Data on 27 compounds can be found in PubChem BioAssay AID330 (DTP/NCI, 2004).

The test deals with P388 leukemia ip, CD2F1 mice, survival T/C. Put plainly: NCI In Vivo Anticancer Drug Screen. Data for tumor model P388 Leukemia (intraperitoneal) in CD2F1 (CDF1) mice. The following applies: endpoint: median survival time, higher = longer survival. The essentials: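 Mice carrying the transplanted tumor received test compound or vehicle. Survival was recorded in each group, and the value is the treated-group measurement divided by that of the vehicle-treated control group.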

[1] abbreviates: dose: 25.0 mg/kg/injection, schedule: Q01DX005 (ip), vehicle: Klucel (hydroxypropylcellulose) (HPC).
[2] abbreviates: dose: 50.0 mg/kg/injection, schedule: Q01DX005 (ip), vehicle: Klucel (hydroxypropylcellulose) (HPC).
Setting [3] is: dose: 100.0 mg/kg/injection, schedule: Q01DX005 (ip), vehicle: Klucel (hydroxypropylcellulose) (HPC).
The mark [4] stands for this setting: dose: 50.0 mg/kg/injection, schedule: Q01DX009 (ip), vehicle: saline.
[5] abbreviates: dose: 100.0 mg/kg/injection, schedule: Q01DX009 (ip), vehicle: saline.
[6] abbreviates: dose: 200.0 mg/kg/injection, schedule: Q01DX009 (ip), vehicle: saline.
Where [7] appears, read: dose: 50.0 mg/kg/injection, schedule: Q01DX005 (ip), vehicle: saline with Tween-80.
The mark [8] stands for this setting: dose: 100.0 mg/kg/injection, schedule: Q01DX005 (ip), vehicle: saline with Tween-80.
The mark [9] stands for this setting: dose: 200.0 mg/kg/injection, schedule: Q01DX005 (ip), vehicle: saline with Tween-80.
Where [10] appears, read: dose: 50.0 mg/kg/injection, schedule: Q01DX009 (ip), vehicle: saline with Tween-80.
[11] abbreviates: dose: 60.0 mg/kg/injection, schedule: Q01DX005 (ip), vehicle: Klucel (hydroxypropylcellulose) (HPC).
Setting [12] is: dose: 120.0 mg/kg/injection, schedule: Q01DX005 (ip), vehicle: Klucel (hydroxypropylcellulose) (HPC).
Setting [13] is: dose: 240.0 mg/kg/injection, schedule: Q01DX005 (ip), vehicle: Klucel (hydroxypropylcellulose) (HPC).
The mark [14] stands for this setting: dose: 12.5 mg/kg/injection, schedule: Q01DX009 (ip), vehicle: saline.
Setting [15] is: dose: 25.0 mg/kg/injection, schedule: Q01DX009 (ip), vehicle: saline.
[16] abbreviates: dose: 25.0 mg/kg/injection, schedule: Q01DX009 (ip), vehicle: saline with Tween-80.

Several values for one entry are separate records, joined by “and”; a condition that tells them apart may be missing. Identical values can stand only once. Inconclusive results and toxic doses are left out. Square brackets hold non-standard residues; d marks the D form. Peptide text beside a SMILES is read from it. Hpg = N[CH](C(=O)O)c1ccc(O)cc1

As to `CCOC(=O)C1C/C(=N\OC(C)=O)c2ccc(OC)c(OC)c2C1` (stereo unspecified), the T/C was 110 % of control (dose: 12.5 mg/kg/injection, schedule: Q01DX009 (ip), vehicle: other); 101 % of control (dose: 25.0 mg/kg/injection, schedule: Q01DX009 (ip), vehicle: other); 98 % of control (dose: 50.0 mg/kg/injection, schedule: Q01DX009 (ip), vehicle: other); 87 % of control (dose: 100.0 mg/kg/injection, schedule: Q01DX009 (ip), vehicle: other); 88 % of control (dose: 200.0 mg/kg/injection, schedule: Q01DX009 (ip), vehicle: other).

Turning to `COc1ccc(/C=C2/Oc3c(Br)c(OC)cc(OC)c3C2=O)cc1`, the T/C was 98 % of control under setting [1]; 98 % of control under setting [2]; 96 % of control under setting [3]; 97 % of control (dose: 200.0 mg/kg/injection, schedule: Q01DX005 (ip), vehicle: Klucel (hydroxypropylcellulose) (HPC)).

Take `CC(C)=CCC/C(C)=C/CC/C(C)=C/CC/C=C(\C)CC/C=C(\C)CCC[N+](C)(C)[O-]`: the T/C was 101 % of control (dose: 60.0 mg/kg/injection, schedule: Q01DX005 (ip), vehicle: saline); 101 % of control (dose: 120.0 mg/kg/injection, schedule: Q01DX005 (ip), vehicle: saline); 99 % of control (dose: 240.0 mg/kg/injection, schedule: Q01DX005 (ip), vehicle: saline).

For `O=C1CSC(=S)N1c1ccc(N=Nc2ccccc2)cc1`, the T/C runs as follows: under setting [4], 98 % of control; under setting [5], 99 % of control; under setting [6], 86 % of control.

Regarding `O=C(Nc1cccc(Cl)c1)OCC(COC(=O)Nc1cccc(Cl)c1)(COC(=O)Nc1cccc(Cl)c1)[N+](=O)[O-]`, the T/C is 95 % of control under setting [7], 98 % of control under setting [8] and 100 % of control under setting [9].

As for `CCCCNC1C2CCC(C)(C1O)C2(C)C` (stereo unspecified), the T/C under setting [2] was 97 % of control.

On to `CCC1CN2CCc3cc(OC)c(OC)cc3C2CC1C#N` (stereo unspecified), for which, under setting [10], the T/C was 93 % of control.

Regarding `Cc1c(N)c(=O)oc2cc3occc(=O)c3cc12`, the T/C was 91 % of control (dose: 100.0 mg/kg/injection, schedule: Q01DX001 (ip), vehicle: saline with Tween-80); 89 % of control (dose: 200.0 mg/kg/injection, schedule: Q01DX001 (ip), vehicle: saline with Tween-80); 92 % of control (dose: 400.0 mg/kg/injection, schedule: Q01DX001 (ip), vehicle: saline with Tween-80).

Consider `CN1C(=O)N(C)C(=O)C(Cl)(Cl)C1=O`, for which the T/C by setting is: (dose: 12.5 mg/kg/injection, schedule: Q01DX005 (ip), vehicle: Klucel (hydroxypropylcellulose) (HPC)) 101 % of control; under setting [1], 97 % of control.

In the case of `CC(C)CC(N)C(=O)NC(C(N)=O)c1ccc(O)cc1` (stereo unspecified) (H-Leu-[Hpg]-NH2; configuration not given here), the T/C was 101 % of control under setting [4], 92 % of control under setting [5] and 88 % of control under setting [6].

In the case of `COc1cc2c(cc1OC)CC[N+](Cc1ccc([N+](=O)[O-])cc1)=C2`, the T/C by setting is: (dose: 12.5 mg/kg/injection, schedule: Q01DX001 (ip), vehicle: saline + alcohol) 98 % of control; (dose: 25.0 mg/kg/injection, schedule: Q01DX001 (ip), vehicle: saline + alcohol) 95 % of control; (dose: 50.0 mg/kg/injection, schedule: Q01DX001 (ip), vehicle: saline + alcohol) 95 % of control.

As to `C[C@]12CCCC[C@@H]1CC[C@@H]1[C@@H]2CC[C@]2(C)[C@@H](N(CCO)CCCO)CC[C@@H]12`, the T/C is, setting by setting: (dose: 12.5 mg/kg/injection, schedule: Q01DX009 (ip), vehicle: Klucel (hydroxypropylcellulose) (HPC)) 93 % of control; (dose: 25.0 mg/kg/injection, schedule: Q01DX009 (ip), vehicle: Klucel (hydroxypropylcellulose) (HPC)) 99 % of control; (dose: 50.0 mg/kg/injection, schedule: Q01DX009 (ip), vehicle: Klucel (hydroxypropylcellulose) (HPC)) 88 % of control.

Turning to `C[Si](C)(C)O/C=C1/CCOC1=O`, the T/C by setting is: under setting [4], 100 % of control and 87 % of control; under setting [5], 98 % of control and 104 % of control; under setting [6], 120 % of control; (dose: 300.0 mg/kg/injection, schedule: Q01DX009 (ip), vehicle: saline) 114 % of control.

Take `CC1=c2c(oc3cc(O)c(Nc4c(C)cc(O)cc4O)c(C)c23)=CC(=O)C1=Nc1c(C)cc(O)cc1O`: the T/C is 95 % of control under setting [11], 89 % of control under setting [12] and 95 % of control under setting [13].

Regarding `CC(=O)SC12CCCN1C(=O)C1(SC(C)=O)CCCN1C2=O` (stereo unspecified), the T/C is, setting by setting: (dose: 6.25 mg/kg/injection, schedule: Q01DX009 (ip), vehicle: saline) 98 % of control; under setting [14], 104 % of control; under setting [15], 104 % of control; under setting [4], 103 % of control; under setting [5], 111 % of control.

As to `O=[N+]([O-])CC1CCCCC1O` (stereo unspecified), the T/C is, setting by setting: (dose: 6.25 mg/kg/injection, schedule: Q01DX009 (ip), vehicle: saline with Tween-80) 100 % of control; (dose: 12.5 mg/kg/injection, schedule: Q01DX009 (ip), vehicle: saline with Tween-80) 100 % of control; under setting [16], 90 % of control.

As to `O=C(O)Cn1nnc2ccccc21`, the T/C is, setting by setting: under setting [5], 101 % of control; under setting [6], 96 % of control.

Take `C/C=C1/C[N+]2([O-])CC[C@@]34c5ccc(OC)cc5N(C)[C@H]3C2CC1C4C(=O)OC` (stereo partly specified): the T/C was 96 % of control (dose: 2.5 mg/kg/injection, schedule: Q01DX005 (ip), vehicle: Klucel + Tween-80); 97 % of control (dose: 5.0 mg/kg/injection, schedule: Q01DX005 (ip), vehicle: Klucel + Tween-80); 98 % of control (dose: 10.0 mg/kg/injection, schedule: Q01DX005 (ip), vehicle: Klucel + Tween-80); 98 % of control (dose: 20.0 mg/kg/injection, schedule: Q01DX005 (ip), vehicle: Klucel + Tween-80).

As to `CCc1nc(N)nc(N)c1-c1ccc2c(c1)nnn2CCc1ccccc1`, the T/C was 99 % of control under setting [2] and 96 % of control under setting [3].

Turning to `C=C1CC2(CC(C(=C)C)CC=C2C)OC1=O` (stereo unspecified), the T/C is 101 % of control (dose: 100.0 mg/kg/injection, schedule: Q01DX001 (ip), vehicle: saline); 104 % of control (dose: 200.0 mg/kg/injection, schedule: Q01DX001 (ip), vehicle: saline); 109 % of control (dose: 400.0 mg/kg/injection, schedule: Q01DX001 (ip), vehicle: saline).

For `COc1ccc2c(c1)OC1COc3cc(OC)c(OC)cc3C1C2=O` (stereo unspecified), the T/C by setting is: under setting [14], 101 % of control; under setting [15], 94 % of control; under setting [4], 92 % of control; under setting [5], 93 % of control.

In the case of `CCOC(=O)C1SC(=S)N(c2ccccc2)C1N` (stereo unspecified), the T/C by setting is: under setting [14], 98 % of control; under setting [15], 104 % of control; under setting [4], 105 % of control and 86 % of control.

For the compound `CCOC(=S)SC1CC2(C)C(CCC3C2CCC2(C)C(OC(C)=O)CCC32)CC1=O` (stereo unspecified), the T/C runs as follows: (dose: 100.0 mg/kg/injection, schedule: Q04DX003 (ip), vehicle: saline) 96 % of control; (dose: 200.0 mg/kg/injection, schedule: Q04DX003 (ip), vehicle: saline) 92 % of control; (dose: 400.0 mg/kg/injection, schedule: Q04DX003 (ip), vehicle: saline) 89 % of control.

For the compound `CC1C(N)CC2CC1C2(C)C` (stereo unspecified), the T/C is 104 % of control under setting [10] and 112 % of control (dose: 100.0 mg/kg/injection, schedule: Q01DX009 (ip), vehicle: saline with Tween-80).

As for `O=C(O)C1Cc2c([nH]c3ccccc23)C(c2cccs2)N1` (stereo unspecified), the T/C is, setting by setting: under setting [11], 100 % of control; under setting [12], 96 % of control; under setting [13], 97 % of control.

`CCOC(=O)C(=Cc1ccc(OC)c(OC)c1)C(=O)OCC`: the T/C is 110 % of control under setting [7], 102 % of control under setting [8] and 103 % of control under setting [9].

On to `Nc1ncnc2c1cnn2C1OC(CO)C(O)C1O` (stereo unspecified), for which the T/C was 152 % of control (dose: 16.5 mg/kg/injection, schedule: Q01DX009 (ip), vehicle: saline with Tween-80); 154 % of control under setting [16]; 124 % of control (dose: 37.5 mg/kg/injection, schedule: Q01DX009 (ip), vehicle: saline with Tween-80).
